Patent US20240166702A1, “COMPOSITIONS AND METHODS FOR TREATING BREAST CANCER” (Arizona Board of Regents on Behalf of The University of …, priority 2021, published 2024)

Assays:
[1] = test system: nuclear localized EGFR; assay: Subcellular protein fractionation for EGFR nuclear localization; type: cell-based, human; details: MDA-MB-468 serum starved, EGF and peptide for 2 hours
Method: Cells were then fractionated and verified by HSP90 cytosolic protein, Bap31 membrane protein, or HDAC nuclear protein. B. MDA-MB-468 cells were serum starved overnight then stimulated with EGF on ice for 10 minutes. […] B. MDA-MB-468 cells were serum starved overnight then incubated on ice with 10 ng/mL EGF for 10 minutes. […] C. […] After the second week, the number of secondary mammospheres were counted.
MDA-MB-468 were serum starved overnight then incubated with EGF and peptide for 2 hours to allow for nuclear localization of EGFR. Subcellular protein fractionation was then performed to isolate cytosolic, membrane, and nuclear protein fractions (FIG. 5A).

[2] = test system: WAP-TGFα tumors; assay: Anti-NKp46 antibody analysis of WAP-TGFα tumors for NK cells; type: in vivo, mouse; details: anti-NKp46 antibodies
Method: (§1) C. WAP-TGFα tumors treated with either SNX1.3 or cPTD4 were analyzed for NK cells using an anti-NKp46 antibody. Inset is 20×.
In addition to bioinformatics identification of CTLs in these tumors, similar analysis implicated recruitment of NK cells as well (FIG. 9). As a part of the innate immune system, NK cells should only be recruited if a change has occurred to display NK-activating antigens. While there are many such antigens expressed under a variety of immune modulation conditions, some are highly associated with activation of NK cells against cancers, such as ULBP2/3 or MICA/MICB32.

[3] = test system: pAkt and dpERK; assay: EGF-dependent Akt and ERK activation in MDA-MB-468 cells; type: cell-based, human; details: MDA-MB-468, EGF stimulated
[4] = test system: WAP-TGFα tumors; assay: NanoString analysis of WAP-TGFα tumors (PanCancer IO 360 Panel); type: in vivo, mouse
Method: (§2) A. Tumors (n=6 each treatment) from WAP-TGF mice as described in FIG. 1 were embedded and analyzed by NanoString. […] C. Tumors were dissected, lysed, and analyzed for apoptosis by probing for cleaved PARP and PDL1 expression.
as §1
(§3) Due to the increased leukocyte infiltration identified by histology of cSNX1.3-treated WAP-TGFα mice, NanoString analysis was performed using a panel that identifies alterations in immune regulators through localized analysis of transcript expression (PanCancer IO 360 Panel). […] These include several immune/inflammatory genes (such as CD2, TLR, CD28, H2-M3, Ly6C1, cytokines, and chemokines) as well as genes that could impact the metastatic potential of the microenvironment (including collagen 11A1 and MM P12). NanoString bioinformatics analysis further identified that these changes could be due to an increase in Cytotoxic T lymphocytes (CTLs) in cSNX1.3-treated samples compared to PTD4 (FIG. 8B). […] Therefore, tumor lysates were prepared and evaluated for apoptosis and a loss of the negative immune checkpoint receptor PDL1 (FIG. 8C). […] These changes could indicate an alteration from an immune-suppressive to an immune-surveilling microenvironment.

[5] = test system: EGFR dependent mammary gland tumors of WAP-TGFα mice; assay: Tumor regression study in WAP-TGFα transgenic mice; type: in vivo, mouse
Excerpt: (§4) Mice were bred continuously to induce transgene expression and palpated weekly for tumor formation. […] A. Changes in tumor size from entry into study until end of study are shown for each individual tumor, (*) indicate tumors that entered the study at size greater than 500 mm^3, all other tumors entered the study at ˜100 mm^3. B. a Kaplan-Meier survival curve was generated showing when mice were sacrificed by either reaching tumor burden (2000 mm^3) or the end of the study (p=0.0002). C. Upon sacrifice tumors were harvested and fixed in 10% formalin and embedded in paraffin. Slides were stained with hematoxylin and eosin and imaged at 20×. D. Protein lysates were generated from tumors upon sacrifice and probed for the indicated proteins.
C. […] D. Cells were treated similarly as in C., fractionated and evaluated for protein localization by immunoblot.
(§5) Mice are continually bred to activate the pregnancy-dependent WAP promoter, which drives expression of the EGFR ligand Transforming Growth Factor alpha (TGFα) strictly to the mouse mammary glands. This model stochastically forms unifocal mammary adenocarcinomas through a process that begins with mammary hyperplasia, followed by tumor formation over approximately 8 months. […] No difference in weight or behavior or grooming was observed. Therefore 10 μg/g body weight was used for subsequent studies.
When tumors reached >100 mm^3, IV injections began at 3×/week, 10 μg/g body weight and tumors were measured 3×/week with calipers. Animals were injected for 4 weeks or until they reached maximal tumor burden, defined as a single tumor measuring 2000 mm^3. […] The WAP-TGFα is a spontaneous model in which each tumor arises and progresses in a heterogeneous fashion. Each tumor was evaluated separately to determine the overall impact of SNX1.3 treatment (FIG. 3A). […] In this study, mice were sacrificed after 4 weeks of injections or once they reached tumor burden, represented by the Kaplin-Meyer graph (FIG. 3B).

[6] = target: EGFR kinase domain / SNX1 Bar domain (Homo sapiens, UniProt P00533); assay: MST binding of EGFR kinase domain with SNX1 Bar domain and peptides; details: EGFR kinase domain 50 nM
[7] = test system: WAP-TGFα tumors; assay: Histology and protein lysate analysis of treated WAP-TGFα tumors; type: in vivo, mouse
Excerpt: as §4, §2
At the end of the study, mice were sacrificed and tissues were collected and fixed in 10% buffered formalin or homogenized in tissue lysis buffer. Tissues were sectioned and evaluated for changes to tissue morphology in response to peptide treatment (FIG. 3C). […] Representative tumors from the PARP-cleavage positive (cSNX1.3-treated) and negative (cPTD4-treated) are shown (FIG. 3C).
as §3

[8] = Toxicity evaluation in C57Bl/6J female mice; type: in vivo, mouse; details: 5.0 or 10.0 μg/g body weight, 3×/week IV, 2 weeks; cSNX1.3 versus cPTD4; data not shown
Method: as §5

[9] = test system: MCF10A cells; type: cell-based
[10] = test system: MDA-MB-468 cells with reduced EGFR; assay: MTT viability in MDA-MB-468 cells with shRNA knock down of EGFR; type: cell-based, human; details: shRNA to the 3′UTR of EGFR, 5 days IPTG, 3 days peptide, MTT assay
Method: B. MDA-MD-468 cells were transduced with an IPTG inducible shEGFR targeted against the 3′ UTR of EGFR. These cells were incubated with IPTG for the indicated number of days and lysates were generated to confirm knock down of EGFR. C. In tandem with B., cells were plated and incubated +/−IPTG for 2 days prior to drug treatment. […] After 5 days of IPTG and 3 days of peptide treatment viability was measured using an MTT assay.
No effect on CHO cells that lack EGFR expression was observed.

[11] = 10 μg/g IV 3×/week, first to last measurement

Chain of EGFR kinase domain / SNX1 Bar domain (P00533 712-979 limits assumed): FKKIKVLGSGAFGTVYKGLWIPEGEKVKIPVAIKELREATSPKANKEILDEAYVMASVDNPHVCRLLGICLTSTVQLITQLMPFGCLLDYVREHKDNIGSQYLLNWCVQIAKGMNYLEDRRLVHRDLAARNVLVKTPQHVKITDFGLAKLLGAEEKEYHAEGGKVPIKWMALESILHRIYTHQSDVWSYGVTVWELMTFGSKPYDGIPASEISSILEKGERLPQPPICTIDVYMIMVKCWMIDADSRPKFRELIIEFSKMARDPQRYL

## CC[C@H](C)[C@H](NC(=O)[C@@H](NC(=O)[C@H](Cc1c[nH]cn1)NC(=O)[C@H](CC(N)=O)NC(=O)[C@H](CCCCN)NC(=O)[C@H](C)NC(=O)[C@H](CCCNC(=N)N)NC(=O)[C@H](C)NC(=O)[C@H](CCC(N)=O)NC(=O)[C@H](CCCNC(=N)N)NC(=O)[C@H](C)NC(=O)[C@H](C)NC(=O)[C@H](C)NC(=O)[C@H](CCCNC(=N)N)NC(=O)[C@H](C)NC(=O)[C@H](Cc1ccc(O)cc1)NC(C)=O)C(C)C)C(=O)N[C@@H](CCCCN)C(=O)N[C@@H](Cc1ccc(O)cc1)C(=O)N[C@@H](CC(C)C)C(=O)N[C@@H](CCC(=O)O)C(=O)N[C@H](C(=O)N[C@@H](CC(C)C)C(=O)N[C@@H](CC(C)C)C(=O)N[C@@H](Cc1ccc(O)cc1)C(=O)N[C@@H](CO)C(=O)N[C@@H](CCC(N)=O)C(=O)N[C@@H](CCC(N)=O)C(=O)N[C@@H](CCC(N)=O)C(=O)N[C@@H](CC(C)C)C(=O)N[C@@H](C)C(=O)N[C@@H](CCCCN)C(=O)N[C@@H](Cc1ccc(O)cc1)C(=O)N[C@@H](Cc1c[nH]c2ccccc12)C(=O)N[C@@H](CCC(=O)O)C(=O)N[C@@H](C)C(=O)N[C@@H](Cc1ccccc1)C(=O)N[C@@H](CC(C)C)C(N)=O)[C@@H](C)O [cSNX1.3]
[1]
  nuclear localized EGFR: loss of nuclear localized EGFR
[2]
  NK cell infiltration into tumors: Significant NK cell infiltration
[3]; 15′
  immediate Akt or ERK activation: no impact
[3]; after an hour (60′)
  pAkt and dpERK activation, late: suppressed
[4]; NanoString
  expression of TLR1, TLR7, TLR8, TLR9, IRF5 and IRF8: increased expression
[4]; NanoString bioinformatics, compared to PTD4, six tumors each
  Cytotoxic T lymphocytes (CTLs) in tumors: increase
[4]; NanoString, compared to PTD4 control
  NK cells in tumor samples: increase
[5]; 10 μg/g IV 3×/week, 4 weeks, p=0.0002 between groups
  mice that reached maximal tumor burden (2000 mm^3) before the end of the study: 1/6
[5]; [11]
  tumors that regressed: 7/11
  tumors with no change in tumor volume: 2/11
[5]; 10 μg/g IV 3×/week, the growing cSNX1.3 tumors entered at greater than 500 mm^3
  tumors that grew through the study: 2
[5]; 10 μg/g body weight IV 3×/week, 4 weeks or until tumor burden, n=11 tumors
  average tumor regression: 4 mm^3/day
[5]; measured with calipers, confirmed during necropsy
  tumors fully regressed: 3
[5]; weighed throughout the study, 10 μg/g IV 3×/week
  impact on animal weight: no impact
[6]
  binding of EGFR to SNX1: competitively inhibits
[7]; fixed tissue sections at end of study
  changes to tissue architecture in the normal mammary gland: No changes
[7]; identified by histology
  leukocyte infiltration of tumors: increased
[7]; tumor lysates
  overall PDL1 expression in tumors: decrease
[7]; tumor protein lysates at sacrifice
  cleaved PARP / apoptosis in treated tumors: significant increase
[8]
  difference in weight or behavior or grooming: No difference
[9]
  impact on normal immortalized cells: almost no impact
[10]
  efficacy in cells with reduced EGFR: lacked significant efficacy
